Source: patent US9447438B2, “Acetyl-coA carboxylases” (OPX Biotechnologies, Inc., priority 2013, dated 2016)

Tests used:
[1] = molecular target: E. coli ACCase (Escherichia coli, UniProt P0A9Q5+P0ABD5+P0ABD8+P24182); settings: FIG. 4; for effect of salt on E. coli ACCase activity: compared to H. elongata ACCase; for decrease of the activity of the ACCase enzyme relative to control: salt levels near 0.44M
Procedure: Levels of greater than 0.66M (60 g/L) are expected to be present for commercially viable commercial production of 3-HP.
Each gene was amplified by PCRs with Pfu Ultra II HS using the manufacturer's instructions, and the PCR products were purified using the Zymo PCR Cleanup kit. Concentrations of products were measured using the Nanodrop spectophotometer. The Gibson Assembly kit (NEB) was used to construct plasmids expressing the ACCase subunit genes as directed by the manufacturer. The effect of NH4-3-HP and NH4Cl on H. elongata ACCase was tested and compared to the E. coli ACCase.

[2] = system: H. elongata ACCase; assay: Effect of NH4-3-HP and NH4Cl on H. elongata ACCase; assay type: biochemical, Halomonas elongata; settings: FIG. 4; compared to E. coli ACCase
Procedure: Concentrations of products were measured using the Nanodrop spectophotometer.

Sequence of E. coli ACCase (P0A9Q5 whole entry): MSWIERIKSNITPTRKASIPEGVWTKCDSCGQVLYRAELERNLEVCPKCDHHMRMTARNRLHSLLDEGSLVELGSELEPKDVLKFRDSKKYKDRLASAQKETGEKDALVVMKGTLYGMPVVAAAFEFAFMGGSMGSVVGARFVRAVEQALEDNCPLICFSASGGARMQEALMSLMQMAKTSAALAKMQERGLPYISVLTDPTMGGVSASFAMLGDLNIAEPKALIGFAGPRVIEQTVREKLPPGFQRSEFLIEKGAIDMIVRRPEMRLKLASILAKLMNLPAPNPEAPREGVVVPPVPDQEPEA
Sequence of E. coli ACCase (P0ABD5 whole entry): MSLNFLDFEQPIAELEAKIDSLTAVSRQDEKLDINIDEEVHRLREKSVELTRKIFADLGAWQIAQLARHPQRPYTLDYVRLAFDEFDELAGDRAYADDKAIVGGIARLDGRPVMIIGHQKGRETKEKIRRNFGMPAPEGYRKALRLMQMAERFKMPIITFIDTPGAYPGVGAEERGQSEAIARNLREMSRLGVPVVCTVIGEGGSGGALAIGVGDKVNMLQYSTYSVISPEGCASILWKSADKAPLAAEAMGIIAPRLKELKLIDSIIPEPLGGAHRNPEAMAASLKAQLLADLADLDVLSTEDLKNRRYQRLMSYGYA

Structure (SMILES)	effect of salt on E. coli ACCase activity [1]	effect of salt on H. elongata ACCase activity [2]	decrease of the activity of the ACCase enzyme relative to control [1]
N.O=C(O)CCO [NH4-3-HP]	significantly inhibited	less affected	
Cl.N [NH4Cl]	significantly inhibited	less affected	approximately 80%
[Cl-].[Na+] [NaCl]			approximately 80%
